Consider two compounds from patent US20230416199A1, “INHIBITORS OF AMINO ACID TRANSPORT” (ICAHN SCHOOL OF MEDICINE AT MOUNT SINAI, priority 2020, published 2023).

Holding throughout (assay type): cell-based
Assay [1] deals with T1, hASCT2 (Homo sapiens, UniProt Q15758).
T1 construct: expressed in transfected cells; host or cells: HEK293 (ATCC CRL-11268), transient transfection
T1 sequence (Q15758 1-541): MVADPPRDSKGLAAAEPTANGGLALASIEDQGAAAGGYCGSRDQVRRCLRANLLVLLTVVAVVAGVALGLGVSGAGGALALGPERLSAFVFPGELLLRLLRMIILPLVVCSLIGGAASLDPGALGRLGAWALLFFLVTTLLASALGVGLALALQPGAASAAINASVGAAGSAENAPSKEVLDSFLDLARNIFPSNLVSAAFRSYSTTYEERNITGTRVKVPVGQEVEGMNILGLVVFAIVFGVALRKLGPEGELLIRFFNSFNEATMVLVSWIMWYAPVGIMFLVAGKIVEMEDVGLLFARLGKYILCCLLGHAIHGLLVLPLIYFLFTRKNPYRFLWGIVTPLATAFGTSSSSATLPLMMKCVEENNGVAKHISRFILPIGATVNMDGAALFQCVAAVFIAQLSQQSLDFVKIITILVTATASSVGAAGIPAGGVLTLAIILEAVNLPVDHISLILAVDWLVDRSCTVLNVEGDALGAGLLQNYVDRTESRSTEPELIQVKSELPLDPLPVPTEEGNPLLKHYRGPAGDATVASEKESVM
Kind of assay: Electrophysiology (whole-cell current recording) of transfected HEK293 cells, hASCT2. As to conditions: Table 3, dihydroxyproline derivatives. On the procedure: (§1) Human embryonic kidney 293 (HEK293, ATCC CRL-11268) cells were cultured in DMEM media supplemented with 10% (v v) fetal bovine serum (FBS), 2 mM glutamine, 1% penicillin streptomycin solution, 1 mM sodium pyruvate and non-essential amino acids. Cells were maintained at 37° C. in a fully humidified atmosphere containing 5% CO2. rASCT2, hASCT2, hASCT1, EAAT1, EAAT2, EAAC1, EAAT5 and YFP complementary DNAs were each used to transiently transfect HEK293 using POLYPLUS Jet-prime transfection reagent. Cells were analyzed using electrophysiological techniques 24-40 hours after transfection.
(§2) Stock solutions of inhibitor was prepared in dimethyl sulfoxide (DMSO) up to 100 mM. Dilutions to working concentrations were made using external buffer. […] For rASCT2, hASCT2 and hASCT1, external buffer contained 140 mM NaCl, 2 mM MgCl2, 2 mM CaCl2), and 10 mM HEPES, pH 7.40 while internal pipette solution comprised of 130 mM NaSCN, 2 mM MgCl2, 10 mM EGTA, 10 mM HEPES and 10 mM alanine, pH 7.40. For specificity experiments with EAAT1, EAAT2, EAAC1 and EAAT5, internal solution contained 10 mM glutamate instead of alanine. Compounds were applied to HEK293 cells expressing DNA of interest suspended from a current recording electrode in whole cell configuration through a rapid solution exchange device. Cells are immersed in external buffer bath used to dissolve the inhibitors. The open pipette resistance was between 3 and 6 MΩ. Series resistance was not compensated in these experiments due to relatively small currents. Currents traces were recorded using an Adams and List EPC7 amplifier and digitized using a Molecular Devices Digidata A/D converter.
(§3) Linear and nonlinear curve fitting of the experimental data were analyzed using MicroCal Origin software. Nonlinear dose-response relationships were fitted with a Michaelis-Menten-like equation to obtain apparent Ki values in the absence of substrate (see TABLE 2 for Ki values). The figures show representative current traces and dose-response curves for hACST2 and rASCT2, used to obtain Ki values in TABLE 2 for compound SN 40. At least four experiments were performed with at least three different cells. Error bars in all graphs, e.g., in FIG. 1B and FIG. 1C and tables (Ki values) represent mean±SD.

Another assay concerns the target T2, hASCT1 (Homo sapiens, UniProt P43007).
T2 construct: expressed in transfected cells; host or cells: HEK293 (ATCC CRL-11268), transient transfection
T2 sequence (P43007 1-532): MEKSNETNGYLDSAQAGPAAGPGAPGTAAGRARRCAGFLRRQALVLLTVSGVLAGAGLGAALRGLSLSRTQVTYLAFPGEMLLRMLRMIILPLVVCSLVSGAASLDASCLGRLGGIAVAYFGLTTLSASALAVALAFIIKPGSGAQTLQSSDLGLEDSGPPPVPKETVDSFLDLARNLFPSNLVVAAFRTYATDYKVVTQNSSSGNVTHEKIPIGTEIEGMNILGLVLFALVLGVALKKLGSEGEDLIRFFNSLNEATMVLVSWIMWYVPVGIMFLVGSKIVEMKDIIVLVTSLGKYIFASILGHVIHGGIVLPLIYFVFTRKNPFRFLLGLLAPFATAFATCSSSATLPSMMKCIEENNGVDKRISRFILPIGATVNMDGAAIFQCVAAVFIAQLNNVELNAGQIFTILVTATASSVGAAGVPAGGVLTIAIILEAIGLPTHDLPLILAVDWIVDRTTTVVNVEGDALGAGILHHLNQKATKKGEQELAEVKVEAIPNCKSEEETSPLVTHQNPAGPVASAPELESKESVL
Nature of the assay: Electrophysiology (whole-cell current recording) of transfected HEK293 cells, hASCT1. As to conditions: Table 3, dihydroxyproline derivatives; read-out: Ki All DNA: hASCT1. On the procedure:
as §1, §2, §3

Assay [2] concerns the target T3, rASCT2 (Rattus norvegicus, UniProt D3ZJ25).
T3 construct: expressed in transfected cells; host or cells: HEK293 (ATCC CRL-11268), transient transfection
T3 sequence (D3ZJ25 1-555): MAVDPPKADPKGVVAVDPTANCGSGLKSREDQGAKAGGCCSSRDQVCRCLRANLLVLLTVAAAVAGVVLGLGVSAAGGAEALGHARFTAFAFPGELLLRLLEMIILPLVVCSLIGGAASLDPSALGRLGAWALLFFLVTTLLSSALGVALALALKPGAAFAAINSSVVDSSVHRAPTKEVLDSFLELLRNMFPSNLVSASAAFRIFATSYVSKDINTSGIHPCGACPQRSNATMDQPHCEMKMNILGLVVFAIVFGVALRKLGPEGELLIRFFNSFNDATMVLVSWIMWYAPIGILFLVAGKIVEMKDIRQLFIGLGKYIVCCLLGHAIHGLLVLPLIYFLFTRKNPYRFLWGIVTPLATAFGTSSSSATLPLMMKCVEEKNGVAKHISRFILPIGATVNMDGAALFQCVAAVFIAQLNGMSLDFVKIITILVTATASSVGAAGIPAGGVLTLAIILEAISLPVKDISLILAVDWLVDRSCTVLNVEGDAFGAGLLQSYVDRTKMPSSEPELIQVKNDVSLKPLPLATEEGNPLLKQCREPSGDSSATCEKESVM
Nature of the assay: Competition experiment with alanine, rASCT2. As to conditions: second entry of the cell; for Ki: read-out: Competition Expt (h/rASCT2 Ki): rASCT2 Ki.

Assay [3] deals with T3, rASCT2. Nature of the assay: Electrophysiology (whole-cell current recording) of transfected HEK293 cells, rASCT2. As to conditions: Table 3, dihydroxyproline derivatives. The procedure: as §1, §2, §3
The target in assay [4] is T1, hASCT2. Nature of the assay: Competition experiment with alanine, hASCT2. As to conditions: first entry of the cell; for Ki: read-out: Competition Expt (h/rASCT2 Ki): hASCT2 Ki.

For `O=C(OC[C@]1(O)CN[C@H](C(=O)O)C1)c1ccc(-c2ccccc2)cc1` [SN65], the Ki on hASCT2 [1] (read-out: Ki All DNA: hASCT2) turned out to be 30.5 µM; at hASCT1 it was 59.2 µM; on rASCT2 [2] (0.5 mM ala) it was 170 µM; at rASCT2 [3] (read-out: Ki All DNA: rASCT2) it was 25.8 µM; on hASCT2 [4] (0.5 mM ala) it was 52.2 µM. The “Competition Expt % block (given as a decimal): rASCT2” value on rASCT2 [2] (0.5 mM ala, decimal fraction) was 0.4. For the same compound, the “Competition Expt % block (given as a decimal): hASCT2” value on hASCT2 [4] (0.5 mM ala, decimal fraction) was 0.8.

For the compound `O=C(OC[C@@]1(O)CN[C@H](C(=O)O)C1)c1ccc(-c2ccc(F)cc2)cc1` [SN58], the “Ki All DNA: hASCT2” value at hASCT2 [1] was “Very Low”. In addition, on hASCT1, the Ki turned out to be 3.06 µM. Besides, on rASCT2 [2] (1 mM ala), the “Competition Expt % block (given as a decimal): rASCT2” value is on record as “full” and the Ki was determined as 12.8 µM. Also, the “Ki All DNA: rASCT2” value at rASCT2 [3] is recorded as “Very Low”. Besides, on hASCT2 [4] (1 mM ala), the “Competition Expt % block (given as a decimal): hASCT2” value is given as “full” and the Ki was found to be 19.2 µM.
